Data from ChEMBL document CHEMBL4138090, “4-Phenyl quinoline derivatives as potential serotonin receptor ligands with antiproliferative activity” (Eur J Med Chem, 2017).
Calls of active or inactive are those of the source. No cut-off for these calls is given here.

What was measured:
[1] = tested on: MCF7; assay: Cell cycle arrest in human MCF7 cells assessed as accumulation at sub-G0/G1 phase after 48 hrs by propidium iodide staining based flow cytometry; type: functional
[2] = tested on: MCF7; assay: Antiproliferative activity against human MCF7 cells at 5 uM after 72 hrs in presence of serotonin by MTT assay; type: functional, cell-based
[3] = tested on: MCF7; assay: Induction of morphological changes in human MCF7 cells assessed as loss in cellular integrity at 5 uM after 72 hrs; type: functional, cell-based
[4] = tested on: MCF7; assay: Cell cycle arrest in human MCF7 cells assessed as accumulation at G1/S phase after 48 hrs by propidium iodide staining based flow cytometry; type: functional
[5] = tested on: MCF7; assay: Induction of morphological changes in human MCF7 cells assessed as cell detachment at 5 uM after 72 hrs; type: functional, cell-based
[6] = tested on: MCF7; assay: Antiproliferative activity against human MCF7 cells after 72 hrs by MTT assay; type: functional, cell-based; details: MCF7, 72 h
[7] = tested on: MCF7; assay: Induction of apoptosis in human MCF7 cells at 5 uM after 48 hrs by Annexin V-FITC/propidium iodide staining based flow cytometry; type: functional, cell-based
[8] = Cytotoxicity against HEK293 cells assessed as reduction in cell viability after 72 hrs by MTT assay; type: cell-based; details: human, read-out: LD50
[9] = biological target: 5-hydroxytryptamine receptor 2A (Homo sapiens) (UniProt P28223); assay: Antagonist activity at 5-HT2A receptor in human MCF7 cells assessed as reduction in ERK1/2 phosphorylation at 5 uM after 24 to 48 hrs by Western blot analysis relative to control; type: functional, cell-based
[10] = tested on: MCF7; assay: Induction of apoptosis in human MCF7 cells assessed as early apoptotic cells at 5 uM after 48 hrs by Annexin V-FITC/propidium iodide staining based flow cytometry; type: functional, cell-based
[11] = tested on: MCF7; assay: Antiproliferative activity against human MCF7 cells at 5 uM after 72 hrs by MTT assay; type: functional, cell-based
[12] = biological target: 5-hydroxytryptamine receptor 2A (Homo sapiens) (UniProt P28223); assay: Antagonist activity at 5-HT2A receptor in human MCF7 cells assessed as inhibition of serotonin-induced calcium flux at 5 uM measured at 5 secs time interval for 2 mins by Fluo-4AM dye based fluorescence microscopic analysis; type: functional, cell-based
[13] = tested on: MCF7; assay: Cell cycle arrest in human MCF7 cells assessed as accumulation at G2/M phase after 48 hrs by propidium iodide staining based flow cytometry; type: functional

5-hydroxytryptamine receptor 2A (Homo sapiens), sequence (P28223 whole entry): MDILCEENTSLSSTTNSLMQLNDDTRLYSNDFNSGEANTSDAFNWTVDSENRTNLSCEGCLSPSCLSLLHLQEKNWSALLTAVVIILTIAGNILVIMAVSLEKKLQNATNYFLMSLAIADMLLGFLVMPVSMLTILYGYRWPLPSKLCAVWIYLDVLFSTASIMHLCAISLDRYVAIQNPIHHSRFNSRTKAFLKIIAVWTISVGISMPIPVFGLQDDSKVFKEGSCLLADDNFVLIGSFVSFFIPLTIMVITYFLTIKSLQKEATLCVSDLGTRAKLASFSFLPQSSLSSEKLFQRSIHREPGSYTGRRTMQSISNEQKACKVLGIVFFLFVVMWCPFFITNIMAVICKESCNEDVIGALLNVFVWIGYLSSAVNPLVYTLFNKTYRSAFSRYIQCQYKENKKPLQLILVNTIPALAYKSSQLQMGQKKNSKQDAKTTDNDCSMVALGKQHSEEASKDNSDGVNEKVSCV

Compound | Activity [1] | Activity [2] | Activity [3] | Activity [4] | Activity [5] | IC50 [6] [µM] | Activity [7] | CC50 at 72 h [8] [µM] | inhibition [9] [%] | Activity [10] | Activity [11] | inhibition [12] | Activity [13]
CCN1CCN(c2nc3ccccc3c(-c3ccccc3)c2C)CC1 | Active | inactive | Active | inactive | Active | 6.15 | Active | > 24 | > 50 | Active | Active | Active | inactive
Cc1c(N2CCN(C)CC2)nc2ccccc2c1-c1ccccc1 |  |  |  |  |  |  |  |  |  |  |  | Active | 
CCN1CCN(c2nc3ccccc3c(-c3ccccc3)c2-c2ccccc2)CC1 |  | inactive |  |  |  | 7.48 |  | > 24 |  |  | Active | Active | 
